The subject of data set [1] is hamsters fed an atherogenic control diet. As to the kind of experiment: Example 1: tissue weight relative to body weight and histopathological examination of organs. It counts as in vivo, Male Golden Syrian hamsters. The procedure: Histopathological testing and examination of gross and microscopic examination of thin sections of the various organs were conducted by a certified pathologist. There were no significant changes in the appearance or weight of brain, lung, heart, spleen and kidney. However, the livers of control animals were observably yellowish and heavier than those of animals treated with BBRCI or plant stanols, or the combination of either. Table 3 summarizes the effect of BBRCI and plant stanols on the percent tissue weight relative to body weight.

Data set [2] shares this test system. As to the kind of experiment: Example 1: liver cholesterol concentration (FIG. 4). The format is in vivo, Male Golden Syrian hamsters. As to conditions: Example 1, 4 weeks, BBRCI 100 mg/kg·d and/or PS 1% (w/w). From the text:
This observation, together with lower liver weight, implies that either BBRCI or PS or combination of either can be used to treat fatty liver.

Data set [3] deals with liver CYP27A1 mRNA. As to the kind of experiment: Example 1: liver CYP27A1 mRNA expression, real-time PCR. The format is in vivo, Male Golden Syrian hamsters. As to conditions: relative expression in reference to a housekeeping gene, Example 1, 4 weeks. On the procedure: (§1) Experiments were also conducted to determine the effect on the expression of genes associated with cholesterol in the liver and intestine. Total RNA was extracted and mRNA was converted to cDNA. The mRNA expression was measured by real-time PCR with four repeats and calculated as relative expression in reference to internal control of a housekeeping gene for each sample. Table 5, FIG. 8b and FIG. 8c summarize the effect of BBRCI and PS on the mRNA expression of CYP7A1 and CYP27A1 in the liver. BBRCI and PS alone tended to increase mRNA expression of both genes. CYP7A1 and CYP27A1 are two rate-limiting enzymes controlling bile acid synthesis, which is one mechanism through which the body removes cholesterol by converting it into bile acids. When BBRCI and PS were combined, a synergistic action appeared to happen.

For data set [4], the system named is intestinal ABCG8 mRNA. Kind of data set: Example 1: intestinal ABCG8 mRNA expression, real-time PCR. It counts as in vivo, Male Golden Syrian hamsters. As to conditions: intestine; relative expression in reference to a housekeeping gene; Example 1, 4 weeks. On the procedure: Experiments were also conducted to determine the effect on the expression of genes associated with cholesterol in the liver and intestine. Total RNA was extracted and mRNA was converted to cDNA. The mRNA expression was measured by real-time PCR with four repeats and calculated as relative expression in reference to internal control of a housekeeping gene for each sample. […] The function of ABCG5 and ABCG8 in the intestine is to transport cholesterol out of enterocytes and back to the intestine for elimination via the feces. […] The observation of our study (Example 1) has provided a strong support to the synergistic action of BBRCI and PS on cholesterol reduction.

Data set [5] concerns liver CYP7A1 mRNA. As to the kind of experiment: Example 1: liver CYP7A1 mRNA expression, real-time PCR. The format is in vivo, Male Golden Syrian hamsters. As to conditions: relative expression in reference to a housekeeping gene, Example 1, 4 weeks. The procedure: as §1
Data set [6] concerns hamsters fed a diet containing 0.25% cholesterol. As to the kind of experiment: Example 2: five week hamster study, blood lipid levels, 0.25% cholesterol diet, 1% PS. As to conditions: BBRCI 100 mg/kg·d and/or PS 1% (w/w). It counts as in vivo, male Golden Syrian hamsters. The procedure: In this example, a controlled, five week animal study was performed. A total of 48 male Golden Syrian hamsters were randomized into 4 groups of 12 and fed isocaloric diets as follows. Hamster husbandry, living and feeding conditions were similar to that used for Example 1. • Control a semi-synthetic casein-corn starch-sucrose diet that contained 0.25% (w/w) cholesterol • BBRCI control diet containing 100 mg/kg·d of BBRCI • PS control diet containing 1% (w/w) PS • BBRCI+PS control diet containing 100 mg/kg·d BBRCI and 1% (w/w) PS One objective of this example was to determine the effects of each intervention on circulating blood lipids including total cholesterol (T-C), high-density-lipoprotein cholesterol (HDL-C), nonHDL-C (which is indicative of LDL-C levels) and triglyceride (TG) profiles when hamsters were fed a diet containing a higher concentration of cholesterol, for example, 0.25% by weight in the diet. Table 6 summarizes the effect on blood lipid levels (values are means±SD, n=12). Data were analyzed by one-way ANOVA followed by Tukey test if significance was detected. A significant difference was indicated by a p<0.05.

Data set [7] concerns rats fed a diet containing 2% cholesterol and 28% fat. As to the kind of experiment: Example 4: six week rat study, blood total cholesterol levels. It counts as in vivo, male Sprague-Dawley rats. As to conditions: 6 weeks; for T-C: 2% cholesterol 28% fat diet, means±SD, n=10. The procedure:
In this example, a controlled, six week animal study was performed in a different animal model. Six randomized groups of 10 male Sprague-Dawley rats were fed isocaloric diets as follows. […] One objective of this example was to determine the effects of each intervention on plasma cholesterol levels in a different animal model. Table 9 summarizes the effect on blood total cholesterol levels (values are means±SD, n=10).

Setting [8] is: 0.25% cholesterol diet, 5 weeks, means±SD, n=12.

Marks after values point to notes of the source that are not given here.

The values that follow come from patent publication US8895079B2, “Combinations of botanical extracts for promoting cardiovascular health” (National Research Council of Canada, priority 2005, dated 2014).

Turning to `COc1ccc2cc3[n+](cc2c1OC)CCc1cc2c(cc1-3)OCO2` [BBRCI, Berberine chloride], the “Liver, percent tissue weight relative to body weight” value in data set [1] (Example 1, 4 weeks, BBRCI 100 mg/kg·d and/or PS 1% (w/w)) is reported as 4.4 ± 0.4^b percent. Moreover, the “appearance of fatty liver” value in data set [1] (Example 1, compared to the livers of the control animals) is listed as “markedly reduced the appearance of fatty liver”. The “cholesterol concentration in the liver” value in data set [2] was “dramatically reduced cholesterol concentration in the liver”. Moreover, the “CYP27A1 mRNA expression” value in data set [3] came out at 1.27 ± 0.31. For the same molecule, the “ABCG8 mRNA expression” value in data set [4] is given as 1.33 ± 0.45^a. Further, the “CYP7A1 mRNA expression” value in data set [5] was found to be 1.30 ± 0.66. Also, in data set [6] (setting [8]), the “HDL-C Concentration” value is 93.1 ± 27.1^ab mg/dl, the “T-C Concentration” value is recorded as 264.7 ± 49.8^a mg/dl and the “TG Concentration” value is recorded as 549.1 ± 225.3^a mg/dl. Also, the “nonHDL-C Concentration” value in data set [6] (0.25% cholesterol diet, 5 weeks, n=12) was 173.5 ± 66.5^a mg/dl. Moreover, in data set [6] (Example 2, 5 weeks), the “HDL-C % difference from Control” value is listed as 1.7%, the “HDL-C/nonHDL-C % difference from Control” value turned out to be 29%, the “T-C % difference from Control” value is on record as −7.8% and the “TG % difference from Control” value is recorded as −0.2%. In data set [6] (Example 2, 5 weeks), the “nonHDL-C % difference from Control” value was −11.1%. For the same molecule, the HDL-C/nonHDL-C in data set [6] (ratio, 0.25% cholesterol diet, 5 weeks, n=12) is 0.66 ± 0.41^ab. The same molecule returned a T-C in data set [7] (BBRCI 100 mg/kg·d by gavage (BBRCl-1) and/or PS 1% (w/w) in diet) of 102.1 ± 30.6 mg/dL. In data set [7] (BBRCI 200 mg/kg·d by gavage (BBRCl-2), alone or with PS 1% (w/w)), this molecule yielded a T-C of 109.1 ± 26.7 mg/dL. In data set [7] (BBRCI 100 mg/kg·d (BBRCl-1) and/or PS 1% (w/w)), the “T-C % difference from Control” value is −6.7%. For the same molecule, the “T-C % difference from Control” value in data set [7] (BBRCI 200 mg/kg·d (BBRCl-2), alone or with PS 1% (w/w)) is −0.3%.
